According to publication PMC10848769, “Tartrolon E, a secondary metabolite of a marine symbiotic bacterium, is a potent inhibitor of asexual and sexual Plasmodium falciparum” (Antimicrobial Agents and Chemotherapy, 2024):
pEC50: −log10 of the molar value. Where two headings read alike, the source gives them in different places.

Legend:
P. falciparum clone 7G8 = settings: by EC50 or, for ART, RSA, well-characterized susceptibilities; cited from earlier work
P. falciparum clone 3D7 = settings: by EC50 or, for ART, RSA, well-characterized susceptibilities; cited from earlier work
P. falciparum clone GMC1 = settings: by EC50 or, for ART, RSA, well-characterized susceptibilities; cited from earlier work
P. falciparum clone Dd2 = settings: by EC50 or, for ART, RSA, well-characterized susceptibilities; cited from earlier work
P. falciparum clone V1/S = settings: by EC50 or, for ART, RSA, well-characterized susceptibilities; cited from earlier work
P. falciparum clone HB3 = settings: by EC50 or, for ART, RSA, well-characterized susceptibilities; cited from earlier work
P. falciparum clone D6 = settings: by EC50 or, for ART, RSA, well-characterized susceptibilities; cited from earlier work
P. falciparum clone NF54 = settings: by EC50 or, for ART, RSA, well-characterized susceptibilities; cited from earlier work
[1] = system: P. falciparum clone IPC 3445; set-up: method as in BEI, Didier Menard; settings: by EC50 or, for ART, RSA, well-characterized susceptibilities, ref BEI, Didier Menard; cited from earlier work
[2] = system: P. falciparum clone IPC 5202; set-up: method as in BEI, Didier Menard; settings: by EC50 or, for ART, RSA, well-characterized susceptibilities, ref BEI, Didier Menard; cited from earlier work
[3] = system: P. falciparum clone TM90C2A; settings: by EC50 or, for ART, RSA, well-characterized susceptibilities; cited from earlier work
[4] = system: P. falciparum clone D10 w/ yDHODH; settings: by EC50 or, for ART, RSA, well-characterized susceptibilities; cited from earlier work
[5] = system: P. falciparum 3D7 asexual blood stages; experiment: Standard 72-hour inhibitor-response (parasite proliferation) assay; type: cell-based; settings: Plasmodium falciparum, read-out: 3D7 EC50
[6] = system: human liver cell line HepG2; experiment: In vitro cytotoxicity assay; type: cell-based; settings: for EC50: Homo sapiens, HepG2, read-out: EC50 (µM) (95% CI) HepG2
Experimental: (§1) In preliminary experiments to evaluate cytotoxicity to mammalian cells, the murine leukemia L1210 cell line and the human liver cell line HepG2 were grown under identical conditions alongside Pf 3D7. These were treated with TrtE, the chemotherapeutic methotrexate, and DSM265, an inhibitor of parasite dihydroorotate dehydrogenase ([19]).

Pf 3D7 = experiment: Parasite growth alongside mammalian cytotoxicity assays; type: cell-based; settings: Plasmodium falciparum; 3D7, grown under identical conditions alongside mammalian cells; read-out: EC50 (µM) (95% CI) 3D7
Experimental: as §1

[7] = system: murine leukemia L1210 cell line; experiment: In vitro cytotoxicity assay; settings: for EC50: Mus musculus, L1210, read-out: EC50 (µM) (95% CI) L1210
Experimental: as §1

[8] = system: P. falciparum gametocytes; set-up: method as in PMID 24206914; settings: read-out: gametocytocidal potency of comparator antimalarials; cited from earlier work

In the case of `CC1(C)N=C(N)N=C(N)N1c1ccc(Cl)cc1` [CG, cycloguanil], the “Clone susceptibility to antimalarial (R/S)” value (from here on “Clone susceptibility”) (P. falciparum clone 7G8) is given as “R”, the “Clone susceptibility” value (P. falciparum clone 3D7) is given as “S” and the “Clone susceptibility” value (P. falciparum clone GMC1) is given as “R”. For the same compound, the “Clone susceptibility” value (P. falciparum clone Dd2) was “R”, the “Clone susceptibility” value (P. falciparum clone V1/S) was “R” and the “Clone susceptibility” value (P. falciparum clone HB3) was “S”. For the same compound, the “Clone susceptibility” value (P. falciparum clone D6) was “S”, the “Clone susceptibility” value (P. falciparum clone NF54) was “S” and the “Clone susceptibility” value [1] was “R”. For the same compound, the “Clone susceptibility” value [2] was “R” and the “Clone susceptibility” value [3] was “R”.

In the case of `Cc1cc(Nc2ccc3ccccc3c2)n2ncnc2n1` [DSM1], the “Clone susceptibility” value (P. falciparum clone 7G8) is listed as “S”, the “Clone susceptibility” value (P. falciparum clone 3D7) is listed as “S” and the “Clone susceptibility” value (P. falciparum clone GMC1) is listed as “S”. The “Clone susceptibility” value (P. falciparum clone Dd2) was “S”, the “Clone susceptibility” value (P. falciparum clone V1/S) was “S” and the “Clone susceptibility” value (P. falciparum clone HB3) was “S”. The “Clone susceptibility” value (P. falciparum clone D6) was “S”, the “Clone susceptibility” value (P. falciparum clone NF54) was “S” and the “Clone susceptibility” value [1] was “S”. For the same compound, the “Clone susceptibility” value [2] was “S”, the “Clone susceptibility” value [3] was “S” and the “Clone susceptibility” value [4] was “R”.

For `Cc1cc(Nc2ccc(S(F)(F)(F)(F)F)cc2)n2nc(C(C)(F)F)nc2n1` [DSM265], the pEC50 ([5]; 3D7, 72-hour assay) was 8.30, the “Selectivity index (EC50 of HepG2/EC50 3D7)” value ([6]; HepG2 vs 3D7) was 1,980 and the EC50 [6] was 9.9 µM. The EC50 (Pf 3D7) was 0.005 µM, the “Selectivity index (EC50 of L1210/EC50 3D7)” value ([7]; L1210 vs 3D7) was > 4,000 and the EC50 [7] was greater than 20 µM.

For `OC(c1cc(C(F)(F)F)nc2c(C(F)(F)F)cccc12)C1CCCCN1` (stereo not drawn) [MQ, mefloquine], the “Clone susceptibility” value (P. falciparum clone 7G8) is listed as “S”, the “Clone susceptibility” value (P. falciparum clone 3D7) is listed as “S” and the “Clone susceptibility” value (P. falciparum clone GMC1) is listed as “S”. For the same compound, the “Clone susceptibility” value (P. falciparum clone Dd2) was “R”, the “Clone susceptibility” value (P. falciparum clone V1/S) was “S” and the “Clone susceptibility” value (P. falciparum clone HB3) was “S”. The “Clone susceptibility” value (P. falciparum clone D6) was “S”, the “Clone susceptibility” value (P. falciparum clone NF54) was “S” and the “Clone susceptibility” value [1] was “R”. For the same compound, the “Clone susceptibility” value [2] was “R”, the “Clone susceptibility” value [3] was “R” and the “Clone susceptibility” value [4] was “S”.

`CN(Cc1cnc2nc(N)nc(N)c2n1)c1ccc(C(=O)N[C@@H](CCC(=O)O)C(=O)O)cc1` [Methotrexate] gave an EC50 [6] greater than 1 µM, an EC50 (Pf 3D7) of 0.047 µM and an EC50 [7] of 0.012 µM.

In the case of `C=C[C@H]1C[N@@]2CC[C@H]1C[C@H]2[C@H](O)c1ccnc2ccc(OC)cc12` [QN, quinine], the “Clone susceptibility” value (P. falciparum clone 7G8) is listed as “R”, the “Clone susceptibility” value (P. falciparum clone 3D7) is listed as “S” and the “Clone susceptibility” value (P. falciparum clone Dd2) is listed as “R”. For the same compound, the “Clone susceptibility” value (P. falciparum clone V1/S) was “R”, the “Clone susceptibility” value (P. falciparum clone HB3) was “S” and the “Clone susceptibility” value (P. falciparum clone D6) was “S”. For the same compound, the “Clone susceptibility” value (P. falciparum clone NF54) was “S”, the “Clone susceptibility” value [1] was “R” and the “Clone susceptibility” value [2] was “R”.

In the case of `COc1ncnc(NS(=O)(=O)c2ccc(N)cc2)c1OC` [SDX, sulfadoxine], the “Clone susceptibility” value (P. falciparum clone 3D7) is listed as “R”, the “Clone susceptibility” value (P. falciparum clone GMC1) is listed as “R” and the “Clone susceptibility” value (P. falciparum clone Dd2) is listed as “R”. The “Clone susceptibility” value (P. falciparum clone HB3) was “S”, the “Clone susceptibility” value (P. falciparum clone D6) was “S” and the “Clone susceptibility” value (P. falciparum clone NF54) was “R”. For the same compound, the “Clone susceptibility” value [1] was “R” and the “Clone susceptibility” value [2] was “R”.

For `C[C@@H]1CC[C@H]2[C@@H](C)C(=O)O[C@@H]3O[C@@]4(C)CC[C@@H]1[C@]32OO4` [artemisinin], the “Clone susceptibility” value (P. falciparum clone 7G8) is listed as “S”, the “Clone susceptibility” value (P. falciparum clone 3D7) is listed as “S” and the “Clone susceptibility” value (P. falciparum clone GMC1) is listed as “S”. For the same compound, the pEC50 ([5]; 3D7, 72-hour assay) was 8.22, the “Clone susceptibility” value (P. falciparum clone Dd2) was “S” and the “Clone susceptibility” value (P. falciparum clone V1/S) was “S”. For the same compound, the “Clone susceptibility” value (P. falciparum clone HB3) was “S”, the “Clone susceptibility” value (P. falciparum clone D6) was “S” and the “Clone susceptibility” value (P. falciparum clone NF54) was “S”. The “Clone susceptibility” value [1] was “R”, the “Clone susceptibility” value [2] was “R” and the “Clone susceptibility” value [3] was “S”. For the same compound, the “Clone susceptibility” value [4] was “S”.

In the case of `O=C1C(O)=C([C@H]2CC[C@H](c3ccc(Cl)cc3)CC2)C(=O)c2ccccc21` [atovaquone], the “Clone susceptibility” value (P. falciparum clone 7G8) is given as “S”, the “Clone susceptibility” value (P. falciparum clone 3D7) is given as “S” and the “Clone susceptibility” value (P. falciparum clone GMC1) is given as “S”. For the same compound, the pEC50 ([5]; 3D7, 72-hour assay) was 9.00, the “Clone susceptibility” value (P. falciparum clone Dd2) was “S” and the “Clone susceptibility” value (P. falciparum clone V1/S) was “S”. For the same compound, the “Clone susceptibility” value (P. falciparum clone HB3) was “S”, the “Clone susceptibility” value (P. falciparum clone D6) was “S” and the “Clone susceptibility” value (P. falciparum clone NF54) was “S”. For the same compound, the “Clone susceptibility” value [1] was “S”, the “Clone susceptibility” value [2] was “S” and the “Clone susceptibility” value [3] was “S”. For the same compound, the “Clone susceptibility” value [4] was “R”.

In the case of `CCN(CC)CCCC(C)Nc1ccnc2cc(Cl)ccc12` (stereo not drawn) [chloroquine], the “Clone susceptibility” value (P. falciparum clone 7G8) is listed as “R”, the “Clone susceptibility” value (P. falciparum clone 3D7) is listed as “S” and the “Clone susceptibility” value (P. falciparum clone GMC1) is listed as “R”. The pEC50 ([5]; 3D7, 72 h) was 8.22, the “Clone susceptibility” value (P. falciparum clone Dd2) was “R” and the “Clone susceptibility” value (P. falciparum clone V1/S) was “R”. For the same compound, the “Clone susceptibility” value (P. falciparum clone HB3) was “S”, the “Clone susceptibility” value (P. falciparum clone D6) was “S” and the “Clone susceptibility” value (P. falciparum clone NF54) was “S”. For the same compound, the “Clone susceptibility” value [1] was “R”, the “Clone susceptibility” value [2] was “R” and the “Clone susceptibility” value [3] was “R”. For the same compound, the “Clone susceptibility” value [4] was “S”.

In the case of `COc1cc(NC(C)CCCN)c2ncccc2c1` (stereo not drawn) [primaquine], the pEC50 [8] is listed as less than 4.40.

For `CCc1nc(N)nc(N)c1-c1ccc(Cl)cc1` [pyrimethamine], the “Clone susceptibility” value (P. falciparum clone 7G8) is listed as “R”, the “Clone susceptibility” value (P. falciparum clone 3D7) is listed as “S” and the “Clone susceptibility” value (P. falciparum clone GMC1) is listed as “R”. The pEC50 ([5]; 3D7, 72-hour assay) was 7.72, the “Clone susceptibility” value (P. falciparum clone Dd2) was “R” and the “Clone susceptibility” value (P. falciparum clone V1/S) was “R”. The “Clone susceptibility” value (P. falciparum clone HB3) was “R”, the “Clone susceptibility” value (P. falciparum clone D6) was “S” and the “Clone susceptibility” value (P. falciparum clone NF54) was “S”. For the same compound, the “Clone susceptibility” value [1] was “R”, the “Clone susceptibility” value [2] was “R” and the “Clone susceptibility” value [3] was “R”.

In the case of `COc1ccc2nc3cc(Cl)ccc3c(Nc3cc(CN4CCCC4)c(O)c(CN4CCCC4)c3)c2n1` [pyronaridine], the pEC50 [8] is given as 5.37.
